The values that follow come from patent US20110236406A1, “IMMUNOGENIC COMPOSITIONS COMPRISING HMGB1 POLYPEPTIDES” (MedImmune, LLC, priority 2004, published 2011).

Assay [1] relates to human monocyte-derived DCs. The experiment in a line: Cytokine and chemokine secretion by human immature monocyte-derived DCs (ELISA). It is filed as cell-based. Set-up: key to TNFα / IL-18 / IL-8 / IL-10 / IL-6 / IL-12: + indicates increase; − indicates no change compared to medium. The conditions noted are these: for IL-6 / IL-8 / IL-10 / IL-12 / IL-18 / TNFα: HUMAN DC, ELISA 48 h after exposure, compared to medium. On the procedure: (§1) PBMCs were isolated from the blood of normal volunteers (Long Island Blood Services, Melville, N.Y.) over a Ficoll-Hypaque (Amersham Biosciences, Uppsala, Sweden) density gradient. CD14^+ monocytes were isolated from PBMCs by positive selection using anti-CD14 beads (Miltenyi Biotech., Auburn, Calif.) following the manufacturer's instructions. To generate DCs, CD14^+ cells were cultured in RPMI 1640 medium supplemented with 2 mM L-glutamine (GIBCO-BRL Life Technologies; Grand Island, N.Y.), 50 μM 2-mercaptoethanol (Sigma, St. Louis, Mo.), 10 mM HEPES (GIBCO-BRL), penicillin (100 U/ml)-streptomycin (100 μg/ml) (GIBCO-BRL), and 5% human AB serum (Gemini Bio-Products, Woodland, Calif.). Cultures were maintained for 7 days in 6-well trays (3×10^6 cells/well) supplemented with 1000 U GM-CSF per ml (Immunex, Seattle, Wash.) and 200 U IL-4 per ml (R&D Systems; Minneapolis, Minn.) at days 0, 2, 4 and 6.
At day 7 of culture, immature DCs were either left untreated (“immature”, IM), or were stimulated with indicated doses of (i) LPS (E. coli serotype 026:B6, Sigma), (ii) 500 ng/ml of trimeric CD40L (Alexis Biochemicals; San Diego, Calif.), (iii) a cocktail of cytokines (CyC) consisting of IL-6 at 1000 U/ml, TNFα at 10 ng/ml, IL-1β at 10 ng/ml (all from R&D Systems) and prostaglandin E2 (PGE-2) at 1 μg/ml (Sigma), or with (v) non-methylated CpG oligonucleotides (5′ […] 3′) at 30 μg/ml. The sequence of this oligonucleotide is known to induce DC maturation (4), except that it contains an unmodified phosphodiester backbone. In all experiments, DCs were analyzed 48 h after stimulation. All experiments using the rB box were performed in the presence of polymyxin B sufficient to neutralize greater than 10-fold more LPS than present in rB box preparations.
(§2) 48 h post activation, the production of cytokines and chemokines in cell culture supernatants was measured by ELISA (Pierce Boston Technology Center, SearchLight™ Proteome Arrays Multiplex Sample Testing Services, Woburn, Mass.).
as §1, with “DCs, CD 14^+” for “DCs, CD14^+”
(§3) At day 7 of culture, immature DCs were either left untreated, or were stimulated with indicated doses of HMGB1-Bx, HMGB1 peptides, or LPS (E. coli serotype 026:B6, Sigma). In all experiments, DCs were analyzed 48 h after stimulation.
For orientation: An ELISA detects its analyte on a solid surface through an enzyme-linked reagent.

In assay [2] the test system is murine BM-DCs. The experiment in a line: Cytokine and chemokine secretion by murine bone marrow-derived DCs (ELISA). Type of assay: cell-based, mouse. Set-up: key to TNFα / IL-18 / IL-8 / IL-10 / IL-2 / IL-1β / IL-5 / IL-6 / IL-12: + indicates increase; − indicates no change compared to medium. Particulars: for IL-1β / IL-2 / IL-5 / IL-6 / IL-8 / IL-10 / IL-12 / IL-18 / TNFα: Murine DC, ELISA 48 h after exposure, compared to medium. The procedure:
(§4) Bone marrow-derived DCs (BM-DC) were generated using modifications of the original method described by Inaba et al (42). In brief, bone marrow suspensions were incubated with red cell lysis buffer (PUREGENE™ RBC Lysis Solution, Gentra Systems, Minneapolis, Minn.) to remove red blood cells. After washing in media, lymphocytes and Ia-positive cells were killed with a cocktail of mAbs and rabbit complement for 60 min at 37° C. The mAbs were GK1.5 anti-CD4, TIB211 anti-CD8, TIB 120 anti-Ia, and TM 146 anti B220 (The Abs were kindly provided by Dr. Ralph Steinman). The cells were subsequently cultured in media containing 5% FCS and 10 ng/ml recombinant mouse GM-CSF (R&D Systems; Minneapolis, Minn.) for 7 days. For some experiments the cells were further purified at day 7 using CD11c^+-microbeads (Miltenyi Biotech., Auburn, Calif.) according to the manufacturer's instructions.
as §3, §2

Assay [3] deals with murine BM-DCs. The experiment in a line: Phenotypic maturation of murine BM-DCs (surface markers, FACS). It is filed as cell-based, mouse. Particulars: CD11c+ gated BM-DCs, 48 h, peptides 200 μg/ml. On the procedure: as §4, §3
1×10^4 DCs were reacted for at least 20 min at 4° C. in 100 μl of PBS/5% FCS/0.1% sodium azide (staining buffer) with fluorescein isothiocyanate (FITC)-conjugated IgG mAb specific for CD86, CD40 and MHC-II (eBioscience). Cells were then washed 4 times with staining buffer, fixed in 10% formaldehyde in PBS (pH 7.2-7.4) and examined by flow cytometry using a FACScan (BD). In all experiments, isotype controls were included using FITC-conjugated irrelevant mAb of the same Ig class.

The test system of a further assay is allogeneic T cells. Description: Mixed leukocyte reaction, stimulated murine BM-DCs with allogeneic T cells. It is filed as cell-based, mouse. Particulars: BM-DCs from C57/BL6 mice; HMGB1-Bx 50 μg/ml, peptides 200 μg/ml, 48 h; 5-day co-culture. The procedure: T cells were isolated by negative selection using the mouse SpinSep antibody cocktail from StemCell Technologies (Vancouver, Calif.) according to the manufacturer's instructions. The cell purity of the isolated T cells was routinely ˜99% pure.
To assess levels of T cell activation and proliferation, cells were plated at 10^5 cells per well in a round-bottomed 96-well tray at DC:T cell ratios of 1:120 for 5 days in medium described above. The microcultures were pulsed with (^3H)-thymidine (1 μCi/well) for the final 8 h of culture. Cell cultures were harvested onto glass fiber filters with an automated multiple sample harvester and the amount of isotope incorporation was determined by liquid scintillation β-emission. Responses are reported as mean cpm of thymidine incorporation by triplicate cultures (+/−SEM).

Assay [4] relates to B box-induced DC maturation. Description: Signalling inhibitors on B box-induced CD83 upregulation and IL-6 secretion in DCs. Type of assay: cell-based, human. Particulars: 30 min preincubation, then rB box 100 μg/ml, 48 h; SB203580 5 or 20 μM, PD98059 and TPCK 20 or 80 μM. The procedure: FIG. 6. B box causes […] upregulation and IL-6 secretion via a p38 dependent pathway. Immature d7 DCs were preincubated for 30 min with (i) DMSO, (ii) PD98059 at 20 (P20) or 80 (P80) μM, (iii) SB203580 at 5 (S5) or 20 (S20) μM, (iv) TPCK at 20 (T20) or 80 (T80) μM and then treated with rB box (100 μg/ml), or cultured with DMSO in the absence of B box (medium). 48 h after activation the DCs were assayed for the surface expression of CD83 by FACS and IL-6 secretion was measured by ELISA. The results shown are mean+/−SEM of three independent experiments using DCs generated from different donors.
The p38 MAPK-specific inhibitor, SB203580, a pyridinyl imidazole compound, the MEK inhibitor PD98059, and N-tosyl-L-phenylalanine chloromethyl ketone (TPCK) were purchased from Sigma. Because these required solubilization in DMSO, DMSO was used as a negative control.
To obtain insight into the roles of ERK and p38 MAPK pathways in B box-induced DC maturation, we used their specific inhibitors, PD98059 and SB203580, respectively. To analyze the role of NF-κB we used TPCK, a serine protease inhibitor that blocks nuclear translocation of Rel/NF-κB by preventing IκB degradation.

The mark [5] stands for this setting: peptides 200 μg/ml, HMGB1-Bx 50 μg/ml, polymyxin B, 48 h.
[6] abbreviates: peptides 200 μg/ml, polymyxin B, 48 h.
[7] abbreviates: Example 2, peptides 200 μg/ml, HMGB1-Bx 50 μg/ml, polymyxin B, 48 h, FIG. 8C.

No end group written: not given here. *: point of attachment. Biotin = O=C1N[C@H]2[C@H](CS[C@H]2CCCCC(=O)*)N1

“YAFFVQTCREEHKKKHPD (Biotin-YAFFVQTCREEHKKKHPD; listed as Homo sapiens) [Hp-16]”: in assay [1] (Example 2, peptides 200 μg/ml, 48 h), the “activation of human DCs” value is listed as “no effect”. For the same compound, in assay [1], the IL-6 result is given as “−”, the IL-8 result is on record as “−”, the IL-10 result is “−” and the IL-12 entry is recorded as “−”. Further, in assay [1], the IL-18 entry is reported as “−” and the TNFα result is “−”. Also, in the assay with murine BM-DCs [2], the IL-1β result is given as “+”, the IL-2 result is on record as “+”, the IL-5 result is reported as “+” and the IL-6 result is listed as “−”. Also, in the assay with murine BM-DCs [2], the IL-8 entry is given as “−”, the IL-10 entry is recorded as “−”, the IL-12 entry was “+” and the IL-18 result is listed as “+”. In the assay with murine BM-DCs [2], the TNFα entry is listed as “−”. Besides, the “activation of murine BM-DCs” value in the assay on murine BM-DCs [2] (peptides 200 μg/ml, 48 h) is “activated”. Further, in the assay with murine BM-DCs [2] (setting [5]), the “secretion of IL-2” value is listed as “enhanced secretion”, the “secretion of IL-5” value is recorded as “enhanced secretion”, the “secretion of IL-12 (p70)” value was “enhanced secretion” and the “secretion of IL-18” value is given as “enhanced secretion”. Further, the “secretion of IL-10” value with murine BM-DCs [2] (setting [6]) is “enhanced secretion”. Besides, in the assay with murine BM-DCs [3] (HMGB1-Bx 50 μg/ml), the CD40 expression result is given as “strong upregulation”, the CD86 expression result was “strong upregulation” and the MHC-II expression result is “strong upregulation”. In the assay with allogeneic T cells, the “T cell stimulatory activity of exposed BM-DCs in mixed lymphocyte reaction” value is reported as “activated resting allogeneic T cells”.

Take “CSEYRPKIKGEHPGLSIG [Hp-106] (Biotin-CSEYRPKIKGEHPGLSIG; listed as Homo sapiens)”: the IL-6 release entry in assay [1] (Example 1, synthetic B box peptides at 200 μg/ml, FIGS. 3D, E) is listed as “specifically stimulated IL-6 release”. Moreover, the “secretion of IL-6” value in assay [1] (Example 2, peptides 200 μg/ml, HMGB1-Bx 50 μg/ml, polymyxin B, 48 h, FIG. 8A, 8B) is “induced secretion of IL-6”. Further, in assay [1] (setting [7]), the “secretion of IL-8” value was “not”, the “secretion of IL-12 (p70)” value is “increased secretion”, the “secretion of IL-18” value is reported as “increased secretion” and the “secretion of TNF-α” value is given as “increased secretion”. In assay [1], the IL-6 entry is “+”, the IL-8 entry was “−”, the IL-10 result is on record as “−” and the IL-12 result was “+”. Besides, in assay [1], the IL-18 entry was “+” and the TNFα entry was “+”. Also, in the assay on murine BM-DCs [2], the IL-1β result is listed as “+”, the IL-2 entry is on record as “+”, the IL-5 result is recorded as “+” and the IL-6 result is given as “−”. In the assay with murine BM-DCs [2], the IL-8 result is “+”, the IL-10 result is on record as “−”, the IL-12 entry is “+” and the IL-18 result is “+”. In addition, the TNFα result in the assay with murine BM-DCs [2] is recorded as “+”. For the same compound, in the assay with murine BM-DCs [2] (peptides 200 μg/ml, 48 h), the “activation of murine BM-DCs” value is “activated”. For the same compound, in the assay on murine BM-DCs [2] (setting [5]), the “secretion of IL-2” value is reported as “enhanced secretion”, the “secretion of IL-5” value is reported as “enhanced secretion”, the “secretion of IL-8” value was “enhanced secretion” and the “secretion of IL-12 (p70)” value was “enhanced secretion”. In the assay on murine BM-DCs [2] (setting [5]), the “secretion of IL-18” value is reported as “enhanced secretion” and the “secretion of TNF-α” value was “enhanced secretion”. In addition, the “secretion of IL-10” value in the assay on murine BM-DCs [2] (setting [6]) was “enhanced secretion”. In the assay on murine BM-DCs [3], the “surface expression of maturation markers” value was “did not significantly enhance”. Further, the “T cell stimulatory activity of exposed BM-DCs in mixed lymphocyte reaction” value with allogeneic T cells is recorded as “activated resting allogeneic T cells”.

On to `C[S+]([O-])c1ccc(-c2nc(-c3ccncc3)c(-c3ccc(F)cc3)[nH]2)cc1` (centres unmarked) [SB203580], for which, in assay [4], the “B box induced secretion of IL-6” value was “downregulated” and the “B box-induced upregulation of CD83” value is “completely abrogated”.
